The values below come from patent US20130150325A1, “3-(Fluorovinyl)pyrazoles and their use” (BAYER INTELLECTUAL PROPERTY GMBH, priority 2011, published 2013).

SMILES strings stand for the structures.

The experiment has as its system HCT 116 cells transfected with a luciferase reporter under the control of an HIF-responsive sequence. Put plainly: HIF-luciferase assay. It is filed as cell-based. Conditions: Homo sapiens; HCT 116 HIF-luciferase reporter cells, hypoxia chamber (1% O2), 24 h; in some cases means of up to four individual determinations. The essentials: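 Stably transfected HCT 116 cells, plated overnight under normoxia, were exposed to test substances (0-10 μmol/l) for 24 h at 1% O2. Luminescence was read 5 min after adding luciferase reagent, with normoxic cells as background controls. IC50 derived from the hypoxia-driven signal.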

In the case of `Cc1cc(/C(F)=C/c2ccc(C(O)(C(F)(F)F)C(F)(F)F)cc2)nn1Cc1ccnc(N2CCN(C3CC3)CC2)c1` [Example 108, 2-{4-[(Z)-2-(1-{[2-(4-Cyclopropylpiperazin-1-yl)pyridin-4-yl]methyl}-5-methyl-1H-pyrazol-3-yl)-2-fluorovinyl]phenyl}-1,1,1,3,3,3-hexafluoropropan-2-ol], the midpoint of inhibition, the IC50, lay at 3 nM. The same measure for `Cc1cc(/C(F)=C/c2ccc(CN(C(C)C)C(C)C)cc2)nn1Cc1ccnc(N2CCN(C3CC3)CC2)c1` [Example 109, N-{4-[(Z)-2-(1-{[2-(4-Cyclopropylpiperazin-1-yl)pyridin-4-yl]methyl}-5-methyl-1H-pyrazol-3-yl)-2-fluorovinyl]benzyl}-N-isopropylpropane-2-amine]: 1.5 nM. The same measure for `Cc1cc(/C(F)=C/c2ccc(C(C)(C)C)cc2)nn1Cc1ccnc(N2CCN(CC(F)(F)F)CC2)c1` [Example 110, 1-[4-({3-[(Z)-2-(4-tert-Butylphenyl)-1-fluorovinyl]-5-methyl-1H-pyrazol-1-yl}methyl)pyridin-2-yl]-4-(2,2,2-trifluoroethyl)piperazine]: 1 nM; for `Cc1ccc(Cn2nc(/C=C(\F)c3ccc(OC(F)(F)F)cc3)cc2C)cc1` [Example 111, 3-{(Z)-2-Fluoro-2-[4-(trifluoromethoxy)phenyl]vinyl}-5-methyl-1-(4-methylbenzyl)-1H-pyrazole]: 40 nM; for `Cc1cc(/C=C(\F)c2ccc(OC(F)(F)F)cc2)nn1Cc1cccc(N2CC(O)C2)c1` [Example 113, 1-{3-[(3-{(Z)-2-Fluoro-2-[4-(trifluoromethoxy)phenyl]vinyl}-5-methyl-1H-pyrazol-1-yl)methyl]-phenyl}azetidin-3-ol]: 4 nM. Then `Cc1cc(/C=C(\F)c2ccc(OC(F)(F)F)cc2)nn1Cc1cccc(C(=O)N2CCCC2)c1` [Example 114, {3-[(3-{(Z)-2-Fluoro-2-[4-(trifluoromethoxy)phenyl]vinyl}-5-methyl-1H-pyrazol-1-yl)methyl]-phenyl}(pyrrolidin-1-yl)methanone], with 40 nM; and `CNc1ccc(Cn2nc(/C=C(\F)c3ccc(OC(F)(F)F)cc3)cc2C)cn1` [Example 117, 5-[(3-{(Z)-2-Fluoro-2-[4-(trifluoromethoxy)phenyl]vinyl}-5-methyl-1H-pyrazol-1-yl)methyl]-N-methylpyridine-2-amine], with 30 nM; and `Cc1cc(/C=C(\F)c2ccc(OC(F)(F)F)cc2)nn1Cc1ccnc(N2CCN(C3CC3)CC2)c1` [Example 120, 1-Cyclopropyl-4-{4-[(3-{(Z)-2-fluoro-2-[4-(trifluoromethoxy)phenyl]vinyl}-5-methyl-1H-pyrazol-1-yl)methyl]pyridin-2-yl}piperazine], with 20 nM. For the molecule `Cc1cc(/C=C(\F)c2ccc(OC(F)(F)F)cc2)nn1Cc1cccc(C(C)(C)O)c1` [Example 121, 2-{3-[(3-{(Z)-2-Fluoro-2-[4-(trifluoromethoxy)phenyl]vinyl}-5-methyl-1H-pyrazol-1-yl)methyl]phenyl}propan-2-ol], the IC50 amounted to 40 nM. Compared with the last molecule, the IC50 is about 2-fold higher.
